Experimental data from the C3SDB collision cross section collection.

Key:
[1] = [M+H]+; instrument: DT; stepped-field
[2] = instrument: DT, single field, calibrated with Agilent tune mix (Agilent)
[3] = instrument: TW, calibrated with phosphatidylcholines (ESI+) and phosphatidylethanolamines (ESI-)
[4] = [M+Na]+; instrument: DT; stepped-field
[5] = [M+H]+; instrument: DT; single field, calibrated with Agilent tune mix (Agilent)

| collision cross section (N2) ([2]; [M+H]+) [Å²] | collision cross section (N2) ([3]; [M+H]+) [Å²] | collision cross section (N2) ([3]; [M-H]-) [Å²] | SMILES | also measured |
| --- | --- | --- | --- | --- |
| 229.8 | 228.5 | – | CCCCCCCCCCCCCCCC(=O)OCC(O)COP(=O)([O-])OCC[N+](C)(C)C (configuration not stated) [LPC(16:0)] | collision cross section (N2) [1]: 233.3 Å²; collision cross section (N2) ([2]; [M+HCOO]-): 235 Å² |
| – | 285 | – | CC/C=C\C/C=C\C/C=C\C/C=C\C/C=C\CCCCCC(=O)O[C@H](COC(=O)CCC/C=C\C/C=C\C/C=C\C/C=C\C/C=C\CC)COP(=O)(O)OCCN [PE(42:10)] | collision cross section (N2) [4]: 291 Å² |
| – | – | 259.5 | CCCCC/C=C\C/C=C\CCCCCCCC(=O)O[C@H](COC(=O)CCCCCCCCCCCCCCCCC)COP(=O)(O)O [PA(36:2)] | collision cross section (N2) ([2]; [M+NH4]+): 274.5 Å²; collision cross section (N2) ([2]; [M+Na]+): 274 Å²; collision cross section (N2) ([2]; [M-H]-): 260.2 Å² |
| – | 286.6 | – | CCCCCCCCCCCCC=CC[C@@H](O)[C@H](COP(=O)([O-])OCC[N+](C)(C)C)NC(=O)CCCCCCCCCCCCCCCCC [SM(d18:1/18:0)] | collision cross section (N2) [5]: 290.2 Å² |
| – | – | 281.9 | CC/C=C\C/C=C\C/C=C\C/C=C\CCCCC(=O)O[C@H](COC(=O)CCCCCCCCCCC/C=C\C/C=C\CCCCC)COP(=O)(O)OC[C@@H](O)CO [PG(40:6)] | collision cross section (N2) ([2]; [M+NH4]+): 296.6 Å²; collision cross section (N2) ([2]; [M+Na]+): 292.4 Å²; collision cross section (N2) ([3]; [M+Na]+): 290 Å² |
| – | 288.2 | – | CC/C=C\C/C=C\C/C=C\C/C=C\C/C=C\CCCC(=O)OC[C@H](COP(=O)(O)OCCN)OC(=O)CCCCC/C=C\C/C=C\C/C=C\C/C=C\CCCCC [PE(42:9)] | collision cross section (N2) [4]: 295.6 Å² |
| 273.2 | – | 262.1 | CCCC/C=C\CCCCCCCC(=O)O[C@H](CO/C=C\CCCCCCCCCCCCCCCCCC)COP(=O)(O)OCCN [PE(p34:1)] | collision cross section (N2) ([2]; [M+Na]+): 276.9 Å²; collision cross section (N2) ([2]; [M-H]-): 262.2 Å² |
| 300.2 | 296.1 | – | CCCCC/C=C\C/C=C\CCCCCCCCCCCC(=O)O[C@H](COC(=O)CCCCCCC/C=C\C/C=C\CCCCC)COP(=O)([O-])OCC[N+](C)(C)C [PC(40:4)] | – |
| 281.5 | 280.6 | 270.3 | CCCCC/C=C\C/C=C\C/C=C\C/C=C\CCCCCC(=O)O[C@H](CO/C=C\CCCCCCCCCCCCCC)COP(=O)(O)OCCN [PE(p38:4)] | – |
| – | 286 | – | CCCCC/C=C\C/C=C\C/C=C\CCCCC(=O)OC[C@H](COP(=O)([O-])OCC[N+](C)(C)C)OC(=O)CCCCCCC/C=C\CCCCCCCC [PC(36:4)] | collision cross section (N2) ([2]; [M+HCOO]-): 288.4 Å²; collision cross section (N2) ([3]; [M+CH3COO]-): 290.8 Å² |
| 301.6 | – | 289.6 | CCCCCCCCCC/C=C\CCCCCCCCCC(=O)O[C@H](COC(=O)CCCCCCCCCCCCC)COP(=O)(O)O[C@H]1C(O)C(O)C(O)[C@@H](O)C1O (some centres not stated) [PI(36:1)] | collision cross section (N2) ([2]; [M+NH4]+): 302.2 Å²; collision cross section (N2) ([2]; [M+Na]+): 299 Å²; collision cross section (N2) ([2]; [M-H]-): 290.5 Å²; collision cross section (N2) ([3]; [M+Na]+): 297.2 Å² |
| – | 291.6 | – | CC/C=C\C/C=C\C/C=C\C/C=C\CCCCC(=O)OC[C@H](COP(=O)([O-])OCC[N+](C)(C)C)OC(=O)CCCCC/C=C\C/C=C\C/C=C\C/C=C\CCCCC [PC(40:8)] | – |
| – | 263.1 | – | CCCCCCCCCCCCCCCCCC(=O)N[C@@H](CO)[C@H](O)CCCCCCCCCCCCCCC [Cer(d18:0/18:0)] | – |
| 277.1 | 278.1 | 266.5 | CCCCC/C=C\C/C=C\CCCCCCCCCC(=O)O[C@H](CO/C=C\CCCCCCCCCCCCCC)COP(=O)(O)OCCN [PE(p36:2)] | collision cross section (N2) ([2]; [M-H]-): 267.6 Å² |
